Test results as given in publication PMC7217877, “N-AS-triggered SPMs are direct regulators of microglia in a model of Alzheimer’s disease” (Nature Communications, 2020).
Where “and” joins values, the source holds several entries; their conditions need not be identical. Identical values can stand only once.

Tests used:
APP/PS1 mice = assay: Aβ in Lamp1+ phagolysosomes of microglia (Supplementary Fig 5a); assay type: in vivo, mouse; settings: N-AS vs vehicle APP/PS1
Experimental: (§1) Thioflavin S (Sigma-Aldrich) staining was carried out according to previously described procedures. We used 6E10 (mouse, 1:100, Signet, SIG39300), anti-20G10 (mouse, 1:1000, provided by D. R. Howlett, GlaxoSmithKline, Harlow, Essex, UK) for Aβ42, anti-G30 (rabbit, 1:1000, provided by D. R. Howlett) for Aβ40, SMA (mouse, 1:400, Sigma-Aldrich, A2547), AT8 (mouse, 1:500, Thermo Fisher Scientific, MN1020), Caspase-3 (mouse, 1:200, Novus Biologicals, NB100-56708), ac-S565 (rabbit, 1:100), COX2 (mouse, 1:250, Thermo Fisher Scientific, 35-8200), Iba1 (rabbit, 1:500, Wako, 019-19941 and goat, Abcam, ab5076), NeuN (mouse, 1:500, Millipore, MAB177), GFAP (rabbit, 1:500, Dako, N1506 and chicken, 1:500, Abcam, ab4674), and Lamp1 (mouse, 1:200, Abcam, ab24170). The sections were analyzed with a laser-scanning confocal microscope (FV3000; Olympus) or with a BX51 microscope (Olympus). MetaMorph software (Molecular Devices) was used to quantification. Three-dimensional reconstruction of microglia was recorded and analyzed using IMARIS software (Bitplane)[11]. For the analysis of age-dependent microglial COX2^+ CX3CR1^+ cells in WT and APP/PS1 mice, COX2 (rabbit, 1:100, Abcam, ab15191) and CX3CR1 (mouse, 1:100, BioLegend, 149008) antibody were used and the images were acquired on Alexa 488 and APC Channel with performed using Operetta CLS and Analysis Software 4.5 (Perkin-Elmer). […]

5×FAD mice = assay: Iba1+ microglia and GFAP+ astrocyte quantification (Supplementary Fig 8d,e); assay type: in vivo, mouse
Experimental: as §1

## CCCCCCCCCCCCC/C=C/[C@@H](O)[C@H](CO)NC(C)=O [N-AS, N-((2S,3R,E)-1,3-Dihydroxyoctadec-4-en-2-yl)acetamide]
APP/PS1 mice
  microglia containing co-stained lysosomes and Aβ: increased number of microglia containing co-stained lysosomes and Aβ
5×FAD mice; 5xFAD+N-AS, sFig 8e (sheet untitled)
  GFAP+ astrocyte: 1.617 and 1.112 and 1.516 and 1.497 and 1.364 and 1.314
5×FAD mice; 5×FAD, N-AS 30 mg kg^-1 daily s.c. 4 weeks
  neuroinflammation: similarly improved AD pathology of 5×FAD mice
